#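 In this assay, cells in 96-well plates receive the compound at five concentrations for 48 hours. Endpoints are linearly interpolated between the surrounding concentrations. Here, GI50 denotes the concentration required for 50% inhibition of growth. TGI: concentration producing complete growth inhibition.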 Where a SMILES comes first, the peptide text is derived from it.
# Experiments:
# Test in all cases: NCI-60 cell line screen, 48 h
# [1] = tested on: UACC-257 melanoma
# [2] = tested on: SF-539 CNS
# [3] = tested on: OVCAR-4 ovarian
# [4] = tested on: UO-31 renal
# [5] = tested on: TK-10 renal
# [6] = tested on: MALME-3M melanoma
# [7] = tested on: SNB-19 CNS
# [8] = tested on: NCI-H226 lung
# [9] = tested on: M14 melanoma
# [10] = tested on: T-47D breast
SMILES,GI50 [1],TGI [1],GI50 [2],TGI [2],GI50 [3],TGI [3],GI50 [4],TGI [4],GI50 [5],TGI [5],TGI [6],TGI [7],TGI [8],TGI [9],GI50 [6],GI50 [7],GI50 [8],GI50 [10],TGI [10],GI50 [9]
COC1=CC(c2ccc[nH]2)=N/C1=C\c1[nH]c(C)c(CC(=O)NCc2ccccc2)c1C,1.72 µM,3.17 µM,1.89 µM,3.51 µM,1.35 µM,2.93 µM,1.64 µM,3.16 µM,1.75 µM,3.24 µM,–,–,–,–,–,–,–,–,–,–
O=C([O-])c1ccccc1Nc1ccccc1C(=O)[O-].[OH3+].[Zn+2],–,21.5 µM,–,> 82.9 µM,–,39.1 µM,–,> 63.1 µM,–,> 100 µM,50.5 µM,30.7 µM,67 µM,> 100 µM,–,–,–,–,–,–
O=C(N/N=C\c1ccc(N(CCCl)CCCl)cc1)c1cccnc1,60.6 µM,> 100 µM,29.3 µM,> 100 µM,–,–,14.1 µM,> 100 µM,33.4 µM,> 100 µM,> 100 µM,> 100 µM,11.4 µM,> 100 µM,55 µM,45 µM,2.13 µM,26.5 µM,> 100 µM,60.2 µM
COc1cc2c(c(OC)c1OC)-c1ccc(OC)c(=O)cc1C(NC(=O)CCCCCNc1ccc(N=[N+]=[N-])cc1[N+](=O)[O-])CC2 (centres undefined),–,–,–,< 0.01 µM,–,16.2 µM,–,–,–,57.8 µM,26.1 µM,–,< 0.01 µM,5.44 µM,–,–,–,–,> 31.6 µM,–
COc1c(O)cc2c(c1O)C(=O)C(Cc1ccc(O)cc1)CO2 (centres undefined),–,> 100 µM,–,> 100 µM,–,> 100 µM,–,> 100 µM,–,> 100 µM,> 100 µM,> 100 µM,–,> 100 µM,–,–,–,–,> 100 µM,–
CC1=C/C(=N\NS(=O)(=O)c2ccc([N+](=O)[O-])cc2)CC(C)(C)C1,–,> 100 µM,–,> 100 µM,–,–,–,> 100 µM,–,> 100 µM,> 100 µM,> 100 µM,–,> 100 µM,–,–,–,–,> 100 µM,–
N=C1c2ccccc2C(=O)c2c(NCCNCCO)ccc(O)c21,–,> 51.6 µM,–,16.3 µM,–,83.3 µM,–,32.7 µM,–,> 62.3 µM,35.8 µM,84.8 µM,44.7 µM,24.8 µM,–,–,–,–,–,–
CC(=O)NC(CS)C(=O)NC(CO)C(=O)NC(CO)C(=O)NC(Cc1c[nH]c2ccccc12)C(=O)N1CCCC1C(=O)NC(CO)C(=O)NC(Cc1c[nH]c2ccccc12)C(=O)NC(Cc1c[nH]cn1)C(=O)NC(CO)C(=O)NC(Cc1c[nH]c2ccccc12)C(=O)NCC(=O)NCC(=O)NC(C)C(=O)NC(CCC(N)=O)C(=O)NC(CCCCN)C(=O)NC(C)C(=O)NC(CCCNC(=N)N)C(=O)NC(CCCCN)C(N)=O (centres undefined) (Ac-CSSWPSWHSWGGAQKARK-NH2; configuration not given here),–,19.6 µM,–,> 50 µM,–,> 50 µM,–,> 50 µM,–,> 50 µM,20.3 µM,> 50 µM,> 50 µM,> 50 µM,–,–,–,–,28.5 µM,–
N#CC1(C#N)C(=O)c2ccncc2C1=O,–,> 100 µM,–,> 100 µM,–,> 100 µM,–,> 100 µM,–,–,> 100 µM,> 100 µM,> 100 µM,> 100 µM,–,–,–,–,> 100 µM,–
O=S(=O)(O)c1ccc(N=Nc2ccc(N=Nc3c(O)ccc4ccc(S(=O)(=O)O)cc34)cc2)cc1,–,> 100 µM,–,> 100 µM,–,> 100 µM,–,> 100 µM,–,> 100 µM,> 100 µM,> 100 µM,> 100 µM,> 100 µM,–,–,–,–,> 100 µM,–
CN(CCO)CCC1COc2ccccc2O1 (centres undefined),–,–,–,> 10 µM,–,> 10 µM,–,> 10 µM,–,> 10 µM,> 10 µM,> 10 µM,> 10 µM,> 10 µM,–,–,–,–,> 10 µM,–
Brc1ccc2nc(-c3cccs3)nc(N3CCN(c4ccccc4)CC3)c2c1,–,> 100 µM,–,> 100 µM,–,> 100 µM,–,> 100 µM,–,> 100 µM,> 100 µM,> 100 µM,> 100 µM,> 100 µM,–,–,–,–,> 100 µM,–
CC(C)(C)c1ccc(NS(=O)(=O)c2ccc(N)cc2)cc1,–,> 100 µM,–,41.7 µM,–,> 100 µM,–,73.5 µM,–,> 100 µM,39.6 µM,> 100 µM,45.8 µM,44.2 µM,–,–,–,–,> 100 µM,–
COc1cc(-c2n/c(=C\c3c(O)[nH]c4ccccc34)cc3c2=Nc2ccccc2-3)ccc1F,15 µM,40 µM,11.7 µM,33.2 µM,2.32 µM,6.4 µM,25.6 µM,> 100 µM,3.89 µM,13 µM,23.2 µM,24.3 µM,> 100 µM,22.3 µM,4.38 µM,4.94 µM,19.9 µM,6.87 µM,82 µM,5.2 µM
C/C=C(\C)C(=O)OC1C2C(C)=CC(=O)C(O)C2(C)C2C3(O)OCC24C1OC(=O)C(OC(C)=O)C4C(C)C3O (centres undefined),–,0.0496 µM,–,–,–,0.413 µM,–,0.887 µM,–,–,–,–,0.0427 µM,–,–,–,–,–,–,–
CCOC(=O)NC(=O)c1cn(CCN(CCO)C(=O)NCCCCCCNC(=O)N(CCO)CCn2cc(C(=O)NC(=O)OCC)c(=O)[nH]c2=O)c(=O)[nH]c1=O,–,> 100 µM,–,> 100 µM,–,> 100 µM,–,> 100 µM,–,–,> 100 µM,> 100 µM,> 100 µM,–,–,–,–,–,–,–
CCCC[n+]1ccn(-c2nc3ccccc3n2C)c1,–,> 100 µM,–,> 100 µM,–,> 100 µM,–,> 100 µM,–,> 100 µM,> 100 µM,> 100 µM,> 100 µM,> 100 µM,–,–,–,–,–,–
COc1nc2ccc(Cl)c(C(O)c3ccccc3)c2nc1OC (centres undefined),–,59.2 µM,–,32.8 µM,–,> 100 µM,–,> 100 µM,–,> 100 µM,> 100 µM,> 100 µM,54.7 µM,38.8 µM,–,–,–,–,99.4 µM,–
COC(Cc1cc(C(O)(c2ccc(C(C)(C)C)cc2)c2cc(CC(OC)(c3cc(C(OC)(c4ccc(C(C)(C)C)cc4)c4ccc(C(C)(C)C)cc4)c(C)cc3C)c3cc(C(OC)(c4ccc(C(C)(C)C)cc4)c4ccc(C(C)(C)C)cc4)c(C)cc3C)c(C)cc2C)c(C)cc1C)(c1cc(C(OC)(c2ccc(C(C)(C)C)cc2)c2ccc(C(C)(C)C)cc2)c(C)cc1C)c1cc(C(OC)(c2ccc(C(C)(C)C)cc2)c2ccc(C(C)(C)C)cc2)c(C)cc1C,–,> 75 µM,–,> 75 µM,–,> 75 µM,–,> 75 µM,–,> 75 µM,> 75 µM,> 75 µM,> 75 µM,> 75 µM,–,–,–,–,> 75 µM,–
N/C(=C\c1ccc(/C=C(\NC(=O)c2ccccc2)c2nc3c([nH]2)C(=O)c2ccccc2C3=O)cc1)c1nc2c([nH]1)C(=O)c1ccccc1C2=O,–,36.2 µM,–,30.2 µM,–,34 µM,–,17.7 µM,–,51.7 µM,–,28.4 µM,27 µM,30.4 µM,–,–,–,–,–,–
N#C[S-].[Ce+3].c1ccc(-c2ccccn2)nc1.c1ccc(-c2ccccn2)nc1.c1ccc(-c2ccccn2)nc1,21.4 µM,64.1 µM,27.3 µM,> 100 µM,13.2 µM,> 100 µM,4.46 µM,28.7 µM,11 µM,97.6 µM,60.7 µM,> 100 µM,63.1 µM,24.7 µM,23 µM,45.6 µM,18 µM,–,–,6.24 µM

# — PubChem BioAssay (NCI)
